# Measured values as given in paper PMC12396409, “Screening and hit evaluation of a microbial metabolite library against the pathogenic Plasmodium falciparum and Toxoplasma gondii parasites” (International Journal for Parasitology: Drugs and Drug …, 2025).
# Where two headings read alike, the source gives them in different places. Where a SMILES comes first, the peptide text is derived from it. Bridges are numbered along the chain shown (N, C = ends). [ ]: non-standard residue; d: D form. The star is where a group is joined. Octatrienoyl(2E,4E,6E) = C/C=C/C=C/C=C/C(=O)*; Pro(4R-Me) = C[C@H]1CN[C@H](C(=O)O)C1; NMeA = CN[C@@H](C)C(=O)O
# Legend:
# [1] = tested on: P. falciparum 3D7 parasites; assay: P. falciparum growth inhibition assay, 2-cycle (120 h treatment), delayed-death screen and dose-response; type: cell-based, Plasmodium falciparum; settings: for activity at 2 µg/mL: Plasmodium falciparum, 3D7
# [2] = tested on: P. falciparum 3D7 parasites; assay: P. falciparum growth inhibition assay, 1-cycle (72 h treatment), SYBR DNA staining (library screen at 2 μg/mL and dose-response); type: cell-based, Plasmodium falciparum; settings: for activity at 2 µg/mL: Plasmodium falciparum, 3D7
# [3] = tested on: T. gondii RH strain (RH-Tub-eYFP) tachyzoites; assay: microbe, parasite or virus in culture; type: cell-based, Toxoplasma gondii; settings: 72 h, 72 h; for percent parasite growth at 2 µg/mL: Toxoplasma gondii
# [4] = library screen at 2 μg/mL, 120 h, % growth, replicate 1
# [5] = library screen at 2 μg/mL, 120 h, % growth, replicate 2
# [6] = library screen at 2 μg/mL, 72 h, % growth, replicate 1
# [7] = library screen at 2 μg/mL, 72 h, % growth, replicate 2
# [8] = library screen at 2 μg/mL, % growth, replicate 1
# [9] = library screen at 2 μg/mL, % growth, replicate 2
# [10] = P. falciparum 3D7, 120 h, parasite screen at 2 μg/mL, % growth, replicate 1
# [11] = P. falciparum 3D7, 72 h, parasite screen at 2 μg/mL, % growth, replicate 1
# [12] = P. falciparum 3D7, 72 h, parasite screen at 2 μg/mL, % growth, replicate 2
# [13] = T. gondii, parasite screen at 2 μg/mL, % growth, replicate 1
# [14] = T. gondii, parasite screen at 2 μg/mL, % growth, replicate 2
smiles,measurement,setting,value
CC(/C=C/[C@@]1(C)[C@H](C)CCC(=O)[C@@H]1C)=C\Cc1c(O)c(Cl)c(C)c(C=O)c1O [Ascochlorin],activity at 2 µg/mL,"[1]; library screen at 2 μg/mL, 120 h, % growth, replicate 1, read-out: Pf_120h_%Growth_Rep1",141%
same,activity at 2 µg/mL,"[1]; library screen at 2 μg/mL, 120 h, % growth, replicate 2, read-out: Pf_120h_%Growth_Rep2",86.1%
same,activity at 2 µg/mL,"[2]; library screen at 2 μg/mL, 72 h, % growth, replicate 1, read-out: Pf_72h_%Growth_Rep1",79.8%
same,activity at 2 µg/mL,"[2]; library screen at 2 μg/mL, 72 h, % growth, replicate 2, read-out: Pf_72h_%Growth_Rep2",84.8%
same,percent parasite growth at 2 µg/mL,"[3]; library screen at 2 μg/mL, % growth, replicate 1, read-out: Tg_72h_%Growth_Rep1",69.4%
same,percent parasite growth at 2 µg/mL,"[3]; library screen at 2 μg/mL, % growth, replicate 2, read-out: Tg_72h_%Growth_Rep2",87.7%
CC(C)CCCCCC=CCC(=O)N[C@@H](CC(=O)O)C(=O)N[C@@H]1C(=O)N2CCCC[C@@H]2C(=O)N[C@@H](C(C)C(=O)O)C(=O)N[C@@H](CC(=O)O)C(=O)NCC(=O)N[C@@H](CC(=O)O)C(=O)NCC(=O)N[C@H](C(C)N)C(=O)N[C@@H](C(C)C)C(=O)N2CCC[C@H]2C(=O)NC1C (stereo partly drawn) [Aspartocin D],Pf_120h_%Growth_Rep1,[1]; [4],152.69%
same,Pf_120h_%Growth_Rep2,[1]; [5],104.90%
same,Pf_72h_%Growth_Rep1,[2]; [6],103.30%
same,Pf_72h_%Growth_Rep2,[2]; [7],89.43%
same,Tg_72h_%Growth_Rep1,[3]; [8],85.89%
same,Tg_72h_%Growth_Rep2,[3]; [9],91.61%
COC1CC(OC2C(C)OC(OC3C(C)=CCC4CC(CC5(CCC(C)C(C(C)C)O5)O4)OC(=O)C4C=C(C)C(O)C5OCC(=CC=CC3C)C45O)CC2OC)OC(C)C1O (stereo not drawn) [BIA-I1117],Pf_120h_%Growth_Rep1,"[1]; P. falciparum 3D7, 120 h, library screen at 2 μg/mL, % growth, replicate 1",88.89%
same,Pf_120h_%Growth_Rep2,"[1]; P. falciparum 3D7, 120 h, library screen at 2 μg/mL, % growth, replicate 2",109.63%
same,Pf_72h_%Growth_Rep1,"[2]; P. falciparum 3D7, 72 h, library screen at 2 μg/mL, % growth, replicate 1",83.64%
same,Pf_72h_%Growth_Rep2,"[2]; P. falciparum 3D7, 72 h, library screen at 2 μg/mL, % growth, replicate 2",117.79%
same,Tg_72h_%Growth_Rep1,"[3]; T. gondii RH, library screen at 2 μg/mL, % growth, replicate 1",121.89%
same,Tg_72h_%Growth_Rep2,"[3]; T. gondii RH, library screen at 2 μg/mL, % growth, replicate 2",92.41%
CN(C)[C@@H]1C(O)=C(C(N)=O)C(=O)[C@@]2(O)C(O)=C3C(=O)c4c(O)cccc4[C@@](C)(O)[C@H]3[C@H](O)[C@@H]12 [BIA-O1336],Pf_120h_%Growth_Rep1,[1]; [10],15.40%
same,Pf_120h_%Growth_Rep2,"[1]; P. falciparum 3D7, 120 h, parasite screen at 2 μg/mL, % growth, replicate 2",14.90%
same,Pf_72h_%Growth_Rep1,[2]; [11],45.04%
same,Pf_72h_%Growth_Rep2,[2]; [12],49.67%
same,Tg_72h_%Growth_Rep1,[3]; [13],105.05%
same,Tg_72h_%Growth_Rep2,[3]; [14],93.22%
"C/C=C/C=C/C=C/C(=O)N[C@@H](Cc1ccccc1)C(=O)N[C@H]1COC(=O)[C@@H]2C[C@@H](C)CN2C(=O)[C@H](C)NC(=O)[C@H](C)N(C)C(=O)[C@@H]2CCCN2C1=O [A 54556A] ({Octatrienoyl(2E,4E,6E)}-FSP[NMeA]A[Pro(4R-Me)]; ester 2-C)",Pf_120h_%Growth_Rep1,[1]; [4],58.56%
same,Pf_120h_%Growth_Rep2,[1]; [5],46.42%
same,Pf_72h_%Growth_Rep1,[2]; [6],73.00%
same,Pf_72h_%Growth_Rep2,[2]; [7],56.16%
same,Tg_72h_%Growth_Rep1,[3]; [8],149.51%
same,Tg_72h_%Growth_Rep2,[3]; [9],92.23%
"CC(=O)NCCc1ccc(O)cc1 [Acetyltyramine, N-]",Pf_120h_%Growth_Rep1,[1]; [4],85.62%
same,Pf_120h_%Growth_Rep2,[1]; [5],81.27%
same,Pf_72h_%Growth_Rep1,[2]; [6],85.43%
same,Pf_72h_%Growth_Rep2,[2]; [7],84.08%
same,Tg_72h_%Growth_Rep1,[3]; [8],171.49%
same,Tg_72h_%Growth_Rep2,[3]; [9],89.14%
O=c1[nH]c2ccccc2c(-c2ccccc2)c1O [Viridicatin],activity at 2 µg/mL,"[1]; P. falciparum, 120 h, screen at 2 μg/mL, replicate 1, read-out: Pf_120h_%Growth_Rep1",106%
same,activity at 2 µg/mL,"[1]; P. falciparum, 120 h, screen at 2 μg/mL, replicate 2, read-out: Pf_120h_%Growth_Rep2",104%
same,activity at 2 µg/mL,"[2]; P. falciparum, 72 h, screen at 2 μg/mL, replicate 1, read-out: Pf_72h_%Growth_Rep1",91.8%
same,activity at 2 µg/mL,"[2]; P. falciparum, 72 h, screen at 2 μg/mL, replicate 2, read-out: Pf_72h_%Growth_Rep2",125%
same,percent parasite growth at 2 µg/mL,"[3]; T. gondii, screen at 2 μg/mL, replicate 1, read-out: Tg_72h_%Growth_Rep1",145%
same,percent parasite growth at 2 µg/mL,"[3]; T. gondii, screen at 2 μg/mL, replicate 2, read-out: Tg_72h_%Growth_Rep2",80.5%
COc1ccc2[nH]c3c(C)c4ccncc4c(C)c3c2c1 [BIA-M1952],Pf_120h_%Growth_Rep2,[1],-1.49%
same,Pf_120h_%Growth_Rep1,[1]; [10],10.32%
same,Pf_72h_%Growth_Rep1,[2]; [11],9.89%
same,Pf_72h_%Growth_Rep2,[2]; [12],-0.96%
same,Tg_72h_%Growth_Rep1,[3]; [13],3.28%
same,Tg_72h_%Growth_Rep2,[3]; [14],1.49%
